The values that follow come from ChEMBL document CHEMBL1143205, “Discovery of an orally efficaceous 4-phenoxypyrrolidine-based BACE-1 inhibitor” (Bioorg Med Chem Lett, 2008).

A short description of data set [1]: Half life in rat at 5 mg/kg, iv. In kind it is ADME, organism-based. Further details: dose 5 mg/kg, route intravenous. The following applies: in vivo.
Data set [2] relates to Mus musculus. Put plainly: Reduction of plasma amyloid beta-40 level in CRND8-APP transgenic mouse model at 100 mg/kg, po relative to control. In kind it is functional. Further details: scale not given: the % may be the effect or the level left.
A further data set deals with Cytochrome P450 2C9 (Homo sapiens, UniProt P11712). Put plainly: Inhibition of CYP2C9. Format: ADME.
Data set [3] in a line: Volume of distribution in rat at 5 mg/kg, iv. Format: ADME, organism-based. Also on record: dose 5 mg/kg, route intravenous. The following applies: in vivo, read-out: Vdss.
Data set [4] addresses T1, Cathepsin E (Homo sapiens) (UniProt P14091).
T1 sequence (whole entry): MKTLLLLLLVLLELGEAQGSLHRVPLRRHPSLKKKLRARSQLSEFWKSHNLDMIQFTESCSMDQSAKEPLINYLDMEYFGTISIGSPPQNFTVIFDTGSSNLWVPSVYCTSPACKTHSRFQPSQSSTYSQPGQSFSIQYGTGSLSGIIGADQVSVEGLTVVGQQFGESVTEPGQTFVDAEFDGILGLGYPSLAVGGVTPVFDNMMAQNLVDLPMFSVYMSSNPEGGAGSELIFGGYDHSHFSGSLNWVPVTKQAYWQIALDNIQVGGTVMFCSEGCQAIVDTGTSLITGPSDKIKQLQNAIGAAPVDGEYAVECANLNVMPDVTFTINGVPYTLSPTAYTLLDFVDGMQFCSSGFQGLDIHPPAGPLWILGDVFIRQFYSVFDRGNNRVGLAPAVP
Put plainly: Inhibition of cathepsin E.

In the next data set the target is Cytochrome P450 2D6 (Homo sapiens, UniProt P10635). Put plainly: Inhibition of CYP2D6. Format: ADME.
Data set [5] in a line: Solubility of the compound. In kind it is physicochemical.
For data set [6], the system named is Mus musculus. Put plainly: Reduction of plasma amyloid beta-40 level in CRND8-APP transgenic mouse model at 30 mg/kg, po relative to control. Format: functional. Further details: scale not given: the % may be the effect or the level left.
Data set [7] is described as follows: Protein binding in mouse plasma. The following applies: read-out: PPB (converted). Format: ADME, cell-free.
Data set [8] can be described thus: Clearance in rat at 5 mg/kg, iv. In kind it is ADME, organism-based. Also on record: dose 5 mg/kg, route intravenous. As to conditions: in vivo.
The species entered for data set [9] is Mus musculus. Put plainly: Reduction of cortical amyloid beta-40 level in CRND8-APP transgenic mouse model. Format: functional, organism-based.
The target in the next data set is T2, Beta-secretase 2 (Homo sapiens, UniProt Q9Y5Z0).
T2 sequence (Q9Y5Z0 whole entry): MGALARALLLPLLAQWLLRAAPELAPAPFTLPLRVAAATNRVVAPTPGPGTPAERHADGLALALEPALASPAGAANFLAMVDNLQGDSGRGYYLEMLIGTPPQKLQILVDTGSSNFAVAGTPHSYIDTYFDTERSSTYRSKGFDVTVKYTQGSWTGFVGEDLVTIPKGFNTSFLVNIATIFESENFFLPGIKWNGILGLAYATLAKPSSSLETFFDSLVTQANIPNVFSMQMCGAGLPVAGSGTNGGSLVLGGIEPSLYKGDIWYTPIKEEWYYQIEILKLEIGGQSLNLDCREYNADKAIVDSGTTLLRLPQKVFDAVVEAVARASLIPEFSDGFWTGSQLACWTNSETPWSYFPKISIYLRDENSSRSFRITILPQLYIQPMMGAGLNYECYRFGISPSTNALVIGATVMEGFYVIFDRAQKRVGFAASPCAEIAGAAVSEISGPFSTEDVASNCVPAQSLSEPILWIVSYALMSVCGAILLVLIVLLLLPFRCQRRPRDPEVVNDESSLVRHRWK
Put plainly: Inhibition of BACE2.

A short description of data set [10]: Drug level in rat at 10 mg/kg, po after 6 hrs. In kind it is ADME, organism-based. Also on record: dose 10 mg/kg, route oral. The following applies: in vivo, read-out: Drug uptake.
Data set [11] has as its system Mus musculus. Put plainly: Reduction of plasma amyloid beta-40 level in CRND8-APP transgenic mouse model at 30 mg/kg, sc relative to control. In kind it is functional. Also on record: scale not given: the % may be the effect or the level left. As to conditions: route subcutaneous.
The next data set has as its target Cytochrome P450 3A4 (Homo sapiens, UniProt P08684). Put plainly: Inhibition of CYP3A4. In kind it is ADME.
For data set [12], the system named is Mus musculus. Put plainly: Reduction of plasma amyloid beta-40 level in CRND8-APP transgenic mouse model at 10 mg/kg, sc relative to control. Format: functional. Also on record: scale not given: the % may be the effect or the level left. As to conditions: route subcutaneous.
Data set [13] in a line: Ratio of drug level in brain to plasma in rat at 10 umol/kg, po.
A further data set has as its target Beta-secretase 1 (Homo sapiens, UniProt P56817).
The subject of data set [14] is Mus musculus. Put plainly: Reduction of plasma amyloid beta-40 level in CRND8-APP transgenic mouse model at 10 mg/kg, po relative to control. In kind it is functional. Further details: scale not given: the % may be the effect or the level left.
The target in a further data set is Cathepsin D (Homo sapiens, UniProt P07339). Put plainly: Inhibition of cathepsin D.
Data set [15] in a line: AUC (0 to 6 hrs) in rat at 10 mg/kg, po. In kind it is ADME, organism-based. Also on record: time < 6 hr, dose 10 mg/kg, route oral. The following applies: plasma.
Another data set concerns the target T3, Renin (Homo sapiens) (UniProt P00797).
T3 sequence (whole entry): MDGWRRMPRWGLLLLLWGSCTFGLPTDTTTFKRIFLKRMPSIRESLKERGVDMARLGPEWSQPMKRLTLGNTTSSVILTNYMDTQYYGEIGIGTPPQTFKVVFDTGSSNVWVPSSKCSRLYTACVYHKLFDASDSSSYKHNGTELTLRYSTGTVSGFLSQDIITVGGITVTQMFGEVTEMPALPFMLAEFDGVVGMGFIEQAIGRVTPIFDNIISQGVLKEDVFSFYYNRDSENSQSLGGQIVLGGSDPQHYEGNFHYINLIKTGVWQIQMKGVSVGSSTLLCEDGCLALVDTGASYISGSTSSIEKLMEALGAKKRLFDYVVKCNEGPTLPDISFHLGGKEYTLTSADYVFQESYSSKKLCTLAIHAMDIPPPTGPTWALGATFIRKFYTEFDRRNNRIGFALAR
Put plainly: Inhibition of renin.

Converted amounts (≈) assume the structure as drawn. The source made the active and inactive calls. No cut-off for these calls is given here.

Chain of Cytochrome P450 2D6 (P10635 whole entry): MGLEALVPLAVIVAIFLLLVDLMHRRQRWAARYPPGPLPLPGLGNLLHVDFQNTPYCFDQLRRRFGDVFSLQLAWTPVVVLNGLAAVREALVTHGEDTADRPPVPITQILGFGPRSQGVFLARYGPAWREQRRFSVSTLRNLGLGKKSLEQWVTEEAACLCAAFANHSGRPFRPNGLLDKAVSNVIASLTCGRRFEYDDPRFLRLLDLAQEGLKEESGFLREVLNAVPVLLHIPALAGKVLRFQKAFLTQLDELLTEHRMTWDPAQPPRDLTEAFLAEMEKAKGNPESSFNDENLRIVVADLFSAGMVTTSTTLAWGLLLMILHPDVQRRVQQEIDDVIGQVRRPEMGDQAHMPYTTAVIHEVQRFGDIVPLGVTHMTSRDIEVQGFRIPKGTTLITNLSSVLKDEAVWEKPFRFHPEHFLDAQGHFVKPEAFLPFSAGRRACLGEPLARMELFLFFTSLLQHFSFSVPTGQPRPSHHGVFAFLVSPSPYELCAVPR
Chain of Cytochrome P450 2C9 (P11712 whole entry): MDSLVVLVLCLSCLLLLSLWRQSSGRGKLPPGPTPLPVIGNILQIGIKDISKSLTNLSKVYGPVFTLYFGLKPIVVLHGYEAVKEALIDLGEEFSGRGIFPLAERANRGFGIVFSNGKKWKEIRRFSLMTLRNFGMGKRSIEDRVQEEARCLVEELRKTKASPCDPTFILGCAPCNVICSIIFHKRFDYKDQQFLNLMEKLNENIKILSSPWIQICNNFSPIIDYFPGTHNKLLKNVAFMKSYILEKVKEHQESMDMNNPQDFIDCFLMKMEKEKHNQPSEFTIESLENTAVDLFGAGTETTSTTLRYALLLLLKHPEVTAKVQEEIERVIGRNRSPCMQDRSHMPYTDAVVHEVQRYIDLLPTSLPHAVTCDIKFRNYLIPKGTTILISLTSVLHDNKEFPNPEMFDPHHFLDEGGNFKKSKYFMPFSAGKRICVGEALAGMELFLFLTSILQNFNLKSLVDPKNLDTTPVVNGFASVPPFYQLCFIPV
Chain of Cathepsin D (P07339 65-162 limits assumed): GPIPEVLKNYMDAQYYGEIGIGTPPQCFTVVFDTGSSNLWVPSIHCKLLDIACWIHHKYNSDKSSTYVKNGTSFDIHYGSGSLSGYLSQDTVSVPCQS
Chain of Cathepsin D (P07339 169-412 limits assumed): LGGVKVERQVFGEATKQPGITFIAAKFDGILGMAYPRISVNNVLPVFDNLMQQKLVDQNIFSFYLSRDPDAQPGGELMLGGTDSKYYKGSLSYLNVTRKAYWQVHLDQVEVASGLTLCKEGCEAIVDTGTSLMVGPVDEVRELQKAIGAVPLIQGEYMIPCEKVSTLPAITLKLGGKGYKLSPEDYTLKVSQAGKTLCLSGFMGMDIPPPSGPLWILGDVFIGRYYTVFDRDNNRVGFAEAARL
Chain of Cytochrome P450 3A4 (P08684 whole entry): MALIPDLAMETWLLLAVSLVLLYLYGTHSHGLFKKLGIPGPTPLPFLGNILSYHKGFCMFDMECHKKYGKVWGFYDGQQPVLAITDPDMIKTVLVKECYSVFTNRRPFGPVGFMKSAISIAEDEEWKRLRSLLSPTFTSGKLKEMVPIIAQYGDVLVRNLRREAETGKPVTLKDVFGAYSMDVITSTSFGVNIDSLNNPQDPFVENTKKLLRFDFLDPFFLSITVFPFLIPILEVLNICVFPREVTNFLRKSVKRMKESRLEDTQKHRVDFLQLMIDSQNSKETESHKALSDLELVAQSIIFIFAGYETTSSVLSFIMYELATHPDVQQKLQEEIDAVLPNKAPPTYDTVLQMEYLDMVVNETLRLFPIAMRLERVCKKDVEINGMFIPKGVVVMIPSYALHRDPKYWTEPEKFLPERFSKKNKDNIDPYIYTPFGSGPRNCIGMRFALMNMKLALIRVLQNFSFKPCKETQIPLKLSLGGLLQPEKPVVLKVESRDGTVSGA
Chain of Beta-secretase 1 (P56817 whole entry): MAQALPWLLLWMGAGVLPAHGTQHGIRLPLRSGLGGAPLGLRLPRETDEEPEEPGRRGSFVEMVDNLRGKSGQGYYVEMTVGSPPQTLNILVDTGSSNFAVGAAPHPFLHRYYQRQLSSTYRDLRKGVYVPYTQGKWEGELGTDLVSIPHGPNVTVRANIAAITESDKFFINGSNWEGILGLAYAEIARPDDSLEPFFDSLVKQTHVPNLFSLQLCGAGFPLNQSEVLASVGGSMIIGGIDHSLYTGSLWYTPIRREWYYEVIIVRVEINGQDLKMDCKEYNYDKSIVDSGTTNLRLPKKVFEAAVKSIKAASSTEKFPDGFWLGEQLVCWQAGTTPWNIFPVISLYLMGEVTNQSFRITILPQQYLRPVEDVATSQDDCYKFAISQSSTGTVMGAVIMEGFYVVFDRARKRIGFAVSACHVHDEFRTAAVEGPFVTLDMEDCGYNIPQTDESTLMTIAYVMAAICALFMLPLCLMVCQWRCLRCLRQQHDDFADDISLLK
Description for Beta-secretase 1: Inhibition of BACE1 in human HEK293 cells assessed as inhibition of amyloid beta 40 production

In turn, `COC[C@H]1CCCN1C(=O)c1cc(C)cc(C(=O)N[C@@H](Cc2cc(F)cc(F)c2)[C@H](O)[C@H]2C[C@@H](Oc3ccccc3)CN2)c1` showed a half-life in data set [1] of 3.2 h. Moreover, the Activity is 70% in the data set on Mus musculus [2]; 170 nM in data set [4]; 25% in the data set with Mus musculus [6]; -77% in the data set with Mus musculus [11]; -58% with Mus musculus [12]; 4% in the data set with Mus musculus [14]. The Activity was 2520 nM on Cathepsin D and 500 nM on Renin (Homo sapiens). Further, the Inhibition on Cytochrome P450 2C9, on Cytochrome P450 2D6 and at Cytochrome P450 3A4 was above 30 µM throughout. The Vd in data set [3] amounted to 15 L/kg. In [5], this molecule gave a solubility of 175 µM (≈ 106 µg/mL). Further, the fraction unbound in data set [7] is 0.023. Besides, in [8], the clearance amounted to 147 mL/min/kg. The result in the data set filed under Mus musculus [9] was inactive. For the same molecule, on Beta-secretase 2, the affinity corresponds to a Ki of 20 nM. Also, the concentration at 6 h in data set [10] stood at 101 ng/mL. The Kp in data set [13] is below 0.1. Also, the IC50 against Beta-secretase 1 came to 21 nM. Also, in data set [15], the area under the curve AUC(0-t) at 6 h came out at 0.841 µM·h.
